The results in this text go back to patent publication US8748410B2, “Methods of treating aneurysm” (Wisconsin Alumni Research Foundation, priority 2010, dated 2014).

The subject of experiment [1] is pre-existing (induced) AAAs. In words: pre-existing (induced) AAAs in mice, delayed treatment. As to conditions: weekly injection started 7 days after aneurysm induction, over 5 weeks vs. saline control. The class given is in vivo. Here is the method:
In addition, the inventors have extended their studies to cover the other major subclass of bisphosphonates (i.e., non-nitrogenous bisphosphonates) by studying the effect of etidronate (7.5 mg/kg i.v.) on aneurysm formation over 7 days (see FIG. 3B). The dose of etidronate was equivalent to FDA approved dose for Paget's disease (5-10 mg/kg). […] The bisphosphonate treatment corresponding to the data in FIG. 3A was started 1 week post surgery. The bisphosphonate treatments resulting in the data shown in FIGS. 4 (pamidronate) and 5 (etidronate) differed from the previous treatment in that they included weekly bisphosphonate administration immediately after surgery through 6 weeks post surgery.

The subject of experiment [2] is calcium chloride induced AAA (CaCl2 AAA). As to the kind of experiment: calcium chloride induced AAA in mouse, aneurysm formation. As to conditions: mice, 1.25 mg/kg i.v., after 7 days. The class given is in vivo. From the text:
FIG. 2 illustrates the effect of OLCs inhibition on mouse AAA. Representative pictures of CaCl2 AAA with intravenous (“i.v.”) saline or bisphosphonate injection. Fold increase of the maximum size 7 days after the treatment was shown. n=3, P<0.05. Initially, the inventors identified robust calcification in human AAA samples. The inventors have also identified the existence of OLCs in the medial layer of aneurismal aorta, which were barely detected in age matched aortic tissues from autopsy and stenotic disease both by tartrate-resistant acid phosphatase (“TRAP”) staining, a conventional staining for osteoclast, and immunohistochemistry for osteoclast marker, TRAP (see FIG. 1). The inventors also have identified calcification and OLCs in experimental calcium chloride induced AAA (CaCl2 AAA) in mouse. […] (see FIG. 2) The dose of pamidronate was equivalent to FDA approved dose of pamidronate for osteolytic bone lesions (90 mg/body).

SMILES strings stand for the structures.

For `NCCC(O)(P(=O)(O)O)P(=O)(O)O` [pamidronate], the “further growth of the aneurysm” value in experiment [1] is “immediately halted further growth of the aneurysm”. The “inhibition of aneurysm formation” value in experiment [2] was “apparently complete inhibition of aneurysm formation”.
